Legend:
[1] = system: Adult Merino wethers; assay: Subcutaneous infusion in sheep: staple plucking force and defleecing result; assay type: in vivo; conditions: for Plucking Force day 7: day 7 (in day 9 column)
From the text: One way of defining the extent of wool fibre weakening is by reference to the plucking force (Newtons/ktex, or N/ktex) required to remove the fleece. Methods for making this measurement are described by A. J. Gordon, Aust. J. of Exp. Agric. Anim. Husb. 20, 40-49, and Moore et al, Search. 12, 128-129.
Adult Merino wethers were housed under cover in individual pens or metabolic cages. The animals were offered a maintenance ration of 600 g of a pelleted mixture of 60% lucerne and 40% oats as one meal daily. Drinking water was provided ad lib.
(§1) Wethers were prepared for infusion experiments by the insertion of a polythene catheter below the skin so that the orifice lay near the centre of a 10×10 cm tattooed side on the right midside region of the body. The defleecing agent was dissolved in sterile saline solution and infused using a Harvard pump delivering a volume of 0.030 ml/min. Control animals were infused with saline solution alone.

[2] = system: Adult Merino wethers; assay: Wool harvested from tattooed midside area after subcutaneous infusion (wool growth); assay type: in vivo, sheep
Experimental: as §1
Recovery to preinfusion growth levels was observed 2 weeks later. At lower dose levels wool growth inhibition was noticeably less, the maximum recorded effect being about 80% inhibition of wool growth. This occurred about 4 weeks after infusion, but normal wool growth was attained about 2 weeks later.

[3] = Radioimmunoassay of plasma EGF correlated with plucking force; assay type: in vivo, sheep
Experimental: During the course of the above trails blood samples were taken from selected animals at approximately 1/2 hour intervals after the start of treatment. A correlation between radioimmunoassay determinations of plasma concentrations EGF and forces subsequently required to pluck wool from the skin of the sheep, pointed to the desirability of establishing a plasma concentration EGF of at least about 10 ng/ml for a period of at least about 15 hrs. in order to modify wool growth sufficiently for the fleece to be easily removed by hand.

[4] = system: new born mice; conditions: injected into new born mice; cited from earlier work
[5] = sheep 26, 42.0 kg, EGF 1-45 dose total 4.9, 0.30 mg/kg^0.75, s.c. infusion 26.5 hr
[6] = sheep 27, EGF 1-45 dose total 1.0, s.c. infusion 28 hr
[7] = sheep 1, 36.3 kg, EGF dose total 27.5, 1.86 mg/kg^0.75, s.c. infusion 66 hr
[8] = sheep 3, 41.0 kg, EGF dose total 11.7, 0.74 mg/kg^0.75, s.c. infusion 28 hr
[9] = sheep 4, EGF dose total 11.7, s.c. infusion 28 hr
[10] = sheep 5, EGF dose total 10.0, s.c. infusion 28 hr
[11] = sheep 7, 49.0 kg, EGF dose total 5.8, 0.32 mg/kg^0.75, s.c. infusion 28 hr
[12] = sheep 8, 47.6 kg, EGF dose total 4.7, 0.26 mg/kg^0.75, s.c. infusion 28 hr
[13] = sheep 9, 47.4 kg, EGF dose total 4.7, 0.26 mg/kg^0.75, s.c. infusion 28 hr
[14] = sheep 10, 42.0 kg, EGF dose total 4.7, 0.28 mg/kg^0.75, s.c. infusion 26.5 hr
[15] = sheep 12, 45.4 kg, EGF dose total 2.9, 0.17 mg/kg^0.75, s.c. infusion 28 hr
[16] = sheep 13, 30.6 kg, EGF dose total 2.4, 0.19 mg/kg^0.75, s.c. infusion 25 hr
[17] = sheep 14, 29.4 kg, EGF dose total 2.0, 0.16 mg/kg^0.75, s.c. infusion 26.5 hr
[18] = sheep 16, EGF dose total 1.0, s.c. infusion 28 hr
[19] = sheep 17, 40.8 kg, EGF dose total 1.0, 0.06 mg/kg^0.75, s.c. infusion 28 hr
[20] = sheep 19, 31.8 kg, EGF dose total 5.0, 0.37 mg/kg^0.75, s.c. infusion 7 hr
[21] = sheep 20, 41.0 kg, EGF dose total 5.0, 0.31 mg/kg^0.75, s.c. infusion 7 hr
[22] = sheep 21, 41.9 kg, EGF dose total 5.0, 0.30 mg/kg^0.75, s.c. infusion 7 hr
[23] = sheep 22, 45.0 kg, EGF dose total 5.0, 0.29 mg/kg^0.75, s.c. infusion 7 hr
[24] = sheep 23, 50.6 kg, EGF dose total 5.0, 0.26 mg/kg^0.75, s.c. infusion 7 hr
[25] = sheep 24, 28.6 kg, EGF dose total 2.4, 0.20 mg/kg^0.75, s.c. infusion 48 hr
[26] = sheep 25, 28.4 kg, EGF dose total 2.4, 0.19 mg/kg^0.75, s.c. infusion 48 hr

Q: What does the source list for “EGF 1-45: derivative prepared by tryptic digestion of the intact EGF peptide (NSYPGCPSSYDGYCLNGGVCMHIESLDSYTCNCVIGYSGDRCQTR; not fully specified; Epidermal growth factor; UniProt P01132 977-1021, looked up, fragment)”?
A: Infusion results compared with EGF ([1]; s.c. infusion): closely similar results; Plucking Force day 1 [1, 5]: 5.6 N/ktex; Plucking Force day 9 [1, 5]: 0.3 N/ktex; Result [1, 5]: Fleece cast; Plucking Force day 1 [1, 6]: 4.1 N/ktex; Plucking Force day 9 [1, 6]: 3.1 N/ktex; Result [1, 6]: Weakened fibre

Q: For “EGF: polypeptide of 53 amino acids prepared from the submaxillary glands of adult male mice”, which Fleece removal ([1]; s.c. infusion at rates as low as 0.16 mg EGF/kg^0.75) is on record?
A: consistently allowed fleece to be easily removed

Q: And the “Time to casting of the whole fleece” value ([1]; s.c. infusion of amounts greater than about 0.25 mg EGF/kg^0.75)?
A: ≤ 7 days

Q: What about the Fleece result ([1]; s.c. infusions less than 0.25 mg EGF/kg^0.75) of the same substance?
A: fleeces were retained but staples could easily be removed by hand

Q: And the “Plucking Force day 1” value [1, 7]?
A: 12.2 N/ktex

Q: And the “Plucking Force day 9” value [1, 7]?
A: 0.1 N/ktex

Q: And the Result [1, 7]?
A: Fleece cast

Q: And the “Plucking Force day 1” value [1, 8]?
A: 8.9 N/ktex

Q: What about the “Plucking Force day 9” value [1, 8] of the same substance?
A: 0 N/ktex

Q: What about the Result [1, 8] of the same substance?
A: Fleece cast

Q: And the “Plucking Force day 1” value [1, 9]?
A: 3.4 N/ktex

Q: And the Result [1, 9]?
A: Fleece cast

Q: And the “Plucking Force day 7” value [1, 9]?
A: 0.3 N/ktex

Q: What about the “Plucking Force day 1” value [1, 10] of the same substance?
A: 4.1 N/ktex

Q: And the Result [1, 10]?
A: Fleece cast

Q: And the “Plucking Force day 7” value [1, 10]?
A: 0.2 N/ktex

Q: And the “Plucking Force day 1” value [1, 11]?
A: 7.5 N/ktex

Q: And the “Plucking Force day 9” value [1, 11]?
A: 0.4 N/ktex

Q: And the Result [1, 11]?
A: Fleece cast

Q: And the “Plucking Force day 1” value [1, 12]?
A: 21.3 N/ktex

Q: What about the “Plucking Force day 9” value [1, 12] of the same substance?
A: 2.1 N/ktex

Q: What about the Result [1, 12] of the same substance?
A: Fleece cast

Q: And the “Plucking Force day 1” value [1, 13]?
A: 12.5 N/ktex

Q: And the “Plucking Force day 9” value [1, 13]?
A: 1.4 N/ktex

Q: And the Result [1, 13]?
A: Fleece cast

Q: And the “Plucking Force day 1” value [1, 14]?
A: 7.6 N/ktex

Q: And the “Plucking Force day 9” value [1, 14]?
A: 0.1 N/ktex

Q: What about the Result [1, 14] of the same substance?
A: Fleece cast

Q: What about the “Plucking Force day 1” value [1, 15] of the same substance?
A: 6.6 N/ktex

Q: And the “Plucking Force day 9” value [1, 15]?
A: 0.6 N/ktex

Q: What about the Result [1, 15] of the same substance?
A: Weakened fibre

Q: What about the “Plucking Force day 1” value [1, 16] of the same substance?
A: 11.3 N/ktex

Q: What about the “Plucking Force day 9” value [1, 16] of the same substance?
A: 2.1 N/ktex

Q: And the Result [1, 16]?
A: Weakened fibre

Q: What about the “Plucking Force day 1” value [1, 17] of the same substance?
A: 9.3 N/ktex

Q: What about the “Plucking Force day 9” value [1, 17] of the same substance?
A: 1.5 N/ktex

Q: And the Result [1, 17]?
A: Weakened fibre

Q: What about the “Plucking Force day 1” value [1, 18] of the same substance?
A: 5.5 N/ktex

Q: And the “Plucking Force day 9” value [1, 18]?
A: 3.6 N/ktex

Q: And the Result [1, 18]?
A: Weakened fibre

Q: What about the “Plucking Force day 1” value [1, 19] of the same substance?
A: 10.6 N/ktex

Q: What about the “Plucking Force day 9” value [1, 19] of the same substance?
A: 8.7 N/ktex

Q: What about the Result [1, 19] of the same substance?
A: No effect

Q: And the “Plucking Force day 1” value [1, 20]?
A: 7.0 N/ktex

Q: What about the “Plucking Force day 9” value [1, 20] of the same substance?
A: 0.4 N/ktex

Q: What about the Result [1, 20] of the same substance?
A: Fleece cast

Q: And the “Plucking Force day 1” value [1, 21]?
A: 17.9 N/ktex

Q: And the “Plucking Force day 9” value [1, 21]?
A: 1.0 N/ktex

Q: What about the Result [1, 21] of the same substance?
A: Fleece cast

Q: And the “Plucking Force day 1” value [1, 22]?
A: 11.4 N/ktex

Q: What about the “Plucking Force day 9” value [1, 22] of the same substance?
A: 0.8 N/ktex

Q: And the Result [1, 22]?
A: Fleece cast

Q: And the “Plucking Force day 1” value [1, 23]?
A: 9.0 N/ktex

Q: And the “Plucking Force day 9” value [1, 23]?
A: 1.0 N/ktex

Q: And the Result [1, 23]?
A: Fleece cast

Q: What about the “Plucking Force day 1” value [1, 24] of the same substance?
A: 12.7 N/ktex

Q: What about the “Plucking Force day 9” value [1, 24] of the same substance?
A: 2.8 N/ktex

Q: And the Result [1, 24]?
A: Fleece cast

Q: What about the “Plucking Force day 1” value [1, 25] of the same substance?
A: 14.8 N/ktex

Q: What about the “Plucking Force day 9” value [1, 25] of the same substance?
A: 3.2 N/ktex

Q: What about the Result [1, 25] of the same substance?
A: Weakened fibre

Q: What about the “Plucking Force day 1” value [1, 26] of the same substance?
A: 11.7 N/ktex

Q: And the “Plucking Force day 9” value [1, 26]?
A: 2.4 N/ktex

Q: And the Result [1, 26]?
A: Weakened fibre

Q: What about the Wool production ([2]; 0.74 and 1.86 mg EGF/kg^0.75, 2 weeks after the start of infusion) of the same substance?
A: declined to near zero

Q: And the “Time to recovery to preinfusion growth levels” value ([2]; 0.74 and 1.86 mg EGF/kg^0.75, counted after the near-zero point (2 weeks after start))?
A: 2 weeks

Q: And the “Time of maximum wool growth inhibition after infusion” value ([2]; lower dose levels)?
A: about 4 weeks

Q: And the “Time to normal wool growth after maximum inhibition” value ([2]; lower dose levels)?
A: about 2 weeks

Q: And the “Maximum inhibition of wool growth” value ([2]; lower dose levels (below 0.74 mg EGF/kg^0.75))?
A: about 80%

Q: And the “Period of plasma concentration needed for fleece to be easily removed by hand” value ([3]; at plasma EGF of at least about 10 ng/ml)?
A: at least 15 hrs

Q: And the “Plasma concentration EGF needed for fleece to be easily removed by hand” value ([3]; radioimmunoassay, correlated with plucking force)?
A: at least 10 ng/ml

Q: What about the “Effect on body growth rate and hair growth” value [4] of the same substance?
A: can inhibit body growth rate and hair growth
